# Results published in patent US6723364B1, “Fog treatment method using a liquid composition for treating fruits and vegetables and implementing device” (Xeda International, priority 1998, dated 2004).
# System: Phytophtora parasitica
# Assay: Fungicidal activity in vitro: mycelial growth on Cristomalt agar
# Assay type: cell-based
# Conditions: PhP; MIC expressed on the scale of Table 2
# Method: (§1) The Cristomalt medium used for the evaluations of the fungicidal activities comprises 0.1% of Cristomalt (malt extract) and 0.2% of agar.
# (§2) This culture medium is, after sterilization, brought to 55° C. The terpene compound tested is then introduced in the pure form into the culture medium under warm conditions. Immediately after agitating, the medium, enriched with the terpene product, is poured into Petri dishes (diameter 9 cm, filled with 20 ml of medium). The agar-comprising medium solidifies on cooling. The Petri dishes are then inoculated with plugs, with a diameter of 6 mm, withdrawn from the edge of a culture of the tested fungus, which culture is obtained on Cristomalt medium.
# (§3) Inoculation is carried out at 22° C.
# (§4) The mycelial growth was determined periodically (5 to 15 days, according to the species of fungus).
# (§5) The results are expressed in Table 3 below in terms of MIC, which is the content (in μg/ml) which makes it possible to obtain complete inhibition of mycelial growth.
# (§6) In f act, each experiment was carried out several times, so that, for each terpene and for each species of fungus, a minimum value and a maximum value were obtained.
row,SMILES,Inhibition grades
1,"C=C(C)C1CC=C(C)C(=O)C1 (stereo not shown) [CARVONE, carvone]",6 (40-80)

# Same assay, conditions: PhP; min-max range of several experiments; 22° C.; read-out: MIC (content giving complete inhibition of mycelial growth)
row,SMILES,MIC
1,"C=C(C)C1CC=C(C)C(=O)C1 (stereo not shown) [CARVONE, carvone]",40 to 80 µg/mL

# System: Alternaria alternata
# Assay: as above
# Assay type: cell-based
# Conditions: AA; MIC expressed on the scale of Table 2
# Method: as §1, §2, §3, §4, §5, §6
row,SMILES,Inhibition grades
1,"C=C(C)C1CC=C(C)C(=O)C1 (stereo not shown) [CARVONE, carvone]",6 (40-80)

# Same assay, conditions: Alternaria alternata; AA; min-max range of several experiments; 22° C.; read-out: MIC (content giving complete inhibition of mycelial growth)
row,SMILES,MIC
1,"C=C(C)C1CC=C(C)C(=O)C1 (stereo not shown) [CARVONE, carvone]",40 to 80 µg/mL

# System: Gliocladium roseum
# Assay: as above
# Assay type: cell-based
# Conditions: Clonostachys rosea; GR; min-max range of several experiments; 22° C.; read-out: MIC (content giving complete inhibition of mycelial growth)
# Method: as §1, §2, §3, §4, §5, §6
row,SMILES,MIC
1,"C=C(C)C1CC=C(C)C(=O)C1 (stereo not shown) [CARVONE, carvone]",40 to 80 µg/mL

# Same assay, conditions: GR; MIC expressed on the scale of Table 2
row,SMILES,Inhibition grades
1,"C=C(C)C1CC=C(C)C(=O)C1 (stereo not shown) [CARVONE, carvone]",6 (40-80)

# System: Fusarium oxysporum
# Assay: as above
# Assay type: cell-based
# Conditions: Fusarium oxysporum; FO; min-max range of several experiments; 22° C.; read-out: MIC (content giving complete inhibition of mycelial growth)
# Method: as §1, §2, §3, §4, §5, §6
row,SMILES,MIC
1,"C=C(C)C1CC=C(C)C(=O)C1 (stereo not shown) [CARVONE, carvone]",40 to 80 µg/mL

# Same assay, conditions: OF; MIC expressed on the scale of Table 2
row,SMILES,Inhibition grades
1,"C=C(C)C1CC=C(C)C(=O)C1 (stereo not shown) [CARVONE, carvone]",6 (40-80)

# System: Geocrichum candidum
# Assay: as above
# Assay type: cell-based
# Conditions: GC; MIC expressed on the scale of Table 2
# Method: as §1, §2, §3, §4, §5, §6
row,SMILES,Inhibition grades
1,"C=C(C)C1CC=C(C)C(=O)C1 (stereo not shown) [CARVONE, carvone]",5 (80-160)

# Same assay, conditions: GC; min-max range of several experiments; 22° C.; read-out: MIC (content giving complete inhibition of mycelial growth)
row,SMILES,MIC
1,"C=C(C)C1CC=C(C)C(=O)C1 (stereo not shown) [CARVONE, carvone]",80 to 160 µg/mL

# System: Penicillium digitatum
# Assay: as above
# Assay type: cell-based
# Conditions: PD; MIC expressed on the scale of Table 2
# Method: as §1, §2, §3, §4, §5, §6
row,SMILES,Inhibition grades
1,"C=C(C)C1CC=C(C)C(=O)C1 (stereo not shown) [CARVONE, carvone]",6 (40-80)

# Same assay, conditions: Penicillium digitatum; PD; min-max range of several experiments; 22° C.; read-out: MIC (content giving complete inhibition of mycelial growth)
row,SMILES,MIC
1,"C=C(C)C1CC=C(C)C(=O)C1 (stereo not shown) [CARVONE, carvone]",40 to 80 µg/mL

# System: Botrytis cinerea
# Assay: as above
# Assay type: cell-based
# Conditions: BC; MIC expressed on the scale of Table 2
# Method: as §1, §2, §3, §4, §5, §6
row,SMILES,Inhibition grades
1,"C=C(C)C1CC=C(C)C(=O)C1 (stereo not shown) [CARVONE, carvone]",7 (20-40)

# Same assay, conditions: Botrytis cinerea; BC; min-max range of several experiments; 22° C.; read-out: MIC (content giving complete inhibition of mycelial growth)
row,SMILES,MIC
1,"C=C(C)C1CC=C(C)C(=O)C1 (stereo not shown) [CARVONE, carvone]",20 to 40 µg/mL

# System: Phytophtora parasitica
# Assay: Germination of the spores in vitro
# Assay type: cell-based
# Conditions: PhP; x = 40 μg/ml
# Method: (§7) The activity of eugenol and of isoeugenol on the germination of the spores was evaluated in vitro and compared with that of other terpenes.
# (§8) The procedure of Example 4 is used to do this, except that the concentration of eugenol and of isoeugenol was set at x μg/ml in the culture media used and that 50 μl of a suspension of spores, adjusted to 100,000 spores/ml, are deposited in each Petri dish.
# (§9) The same experiment was carried out starting with a terpene-free culture medium (control test).
# (§10) The results were evaluated using the following assessment criteria:
# (§11) +: considerable reduction in the level of spores germinated
# (§12) The results obtained for 3 different concentrations of terpenes in the culture medium, namely 40 μg/ml, 80 μg/ml and 1280 μg/ml, are listed in Tables 4, 5 and 6.
row,SMILES,germination of the spores
1,"C=C(C)C1CC=C(C)C(=O)C1 (stereo not shown) [CARVONE, carvone]",0

# Same assay, conditions: PhP; x = 80 μg/ml
row,SMILES,germination of the spores
1,"C=C(C)C1CC=C(C)C(=O)C1 (stereo not shown) [CARVONE, carvone]",0

# Same assay, conditions: PhP; x = 1280 μg/ml
row,SMILES,germination of the spores
1,"C=C(C)C1CC=C(C)C(=O)C1 (stereo not shown) [CARVONE, carvone]",0

# System: Alternaria alternata
# Assay: Germination of the spores in vitro
# Assay type: cell-based
# Conditions: AA; x = 40 μg/ml
# Method: as §7, §8, §9, §10, §11, §12
row,SMILES,germination of the spores
1,"C=C(C)C1CC=C(C)C(=O)C1 (stereo not shown) [CARVONE, carvone]",+

# Same assay, conditions: AA; x = 80 μg/ml
row,SMILES,germination of the spores
1,"C=C(C)C1CC=C(C)C(=O)C1 (stereo not shown) [CARVONE, carvone]",0

# Same assay, conditions: AA; x = 1280 μg/ml
row,SMILES,germination of the spores
1,"C=C(C)C1CC=C(C)C(=O)C1 (stereo not shown) [CARVONE, carvone]",0

# System: Penicillium expansum
# Assay: Germination of the spores in vitro
# Assay type: cell-based
# Conditions: PE; x = 40 μg/ml
# Method: as §7, §8, §9, §10, §11, §12
row,SMILES,germination of the spores
1,"C=C(C)C1CC=C(C)C(=O)C1 (stereo not shown) [CARVONE, carvone]",+

# Same assay, conditions: PE; x = 80 μg/ml
row,SMILES,germination of the spores
1,"C=C(C)C1CC=C(C)C(=O)C1 (stereo not shown) [CARVONE, carvone]",0
